Laboratory results taken from patent US11304886B2, “N-acyl sarcosines as antimicrobials for preservation of home and personal care products” (GALAXY SURFACTANTS LTD., priority 2016, dated 2022).

Experiments:
Assay in all cases: Minimum Inhibitory Concentration (MIC)
Type in all cases: cell-based
[1] = system: Pseudomonas aeruginosa ATCC 15442
[2] = system: Escherichia coli ATCC 8739
[3] = system: Candida albicans ATCC 10231
[4] = system: Staphylococcus aureus ATCC 6538
[5] = system: Propionibacterium acnes ATCC 1953
[6] = system: Malassezia furfur MTCC 1374
[7] = system: Aspergillus niger ATCC 16404

Row | SMILES | MIC (%) [1] [%] | MIC (%) [2] [%] | MIC (%) [3] [%] | MIC (%) [4] [%] | MIC (%) [5] [%] | MIC (%) [6] [%] | MIC (%) [7] [%]
1 | OCCOc1ccccc1 [phenoxy ethanol, 2-phenoxy ethanol, reference compound] | 0.8 | 0.6 | 0.6 | 0.8 | 0.4 | 0.6 | 0.9
2 | CCCCCCCC(=O)N(C)CC(=O)O [N-Capryloyl sarcosine, N-Capryloyl Sarcosine] | 0.7 | 0.7 | 0.7 | 0.7 | 0.6 | 0.6 | >1.0
3 | C=CCCCCCCCCC(=O)N(C)CC(=O)O [N-Undecylenoyl sarcosine, N-Undecylenoyl Sarcosine] | 0.6 | 0.7 | 0.6 | 0.6 | 0.7 | 0.6 | >1.0
